# Data taken from article PMC2632993, “Conformational changes in α7 acetylcholine receptors underlying allosteric modulation by divalent cations” (BMC Pharmacology, 2009).
# “Also recorded” adds a separate entry of the source.
# Experiments:
# Assay type in all cases: cell-based, chick
# [1] = target: T1, α7 AChR M^40C mutant (C^115A/L^247T background) (Gallus gallus, UniProt P22770, C138A/L270T/M63C); details: fraction of maximal ACh-evoked current evoked by 10 mM Ba^2+ in the absence of ACh
# T1 construct: expressed in transfected cells; host or cells: Xenopus laevis oocytes injected with cRNA
# Source text: A cDNA clone of the chick α7 receptor containing two mutations (C^115A, L^247T) was used as the parental phenotype for mutations described in this study. We mutated the lone unpaired cysteine in the extracellular domain (C^115) to alanine to allow for a more straightforward interpretation of thiol modification experiments. […] We included the mutation of leucine 247 in the M2 transmembrane domain (L^247T; L9'T) because of its large current amplitudes and non-desensitizing kinetics compared to wild-type α7 receptors. […] All mutations were introduced by site-directed mutagenesis using the QuikChange method (Agilent Technologies, La Jolla, CA) as described previously, and were confirmed by DNA sequencing. […]
# Oocytes were superfused in normal extracellular solution containing a reduced Ca^2+ concentration (ESLC; 96 mM NaCl, 2 mM KCl, 1 mM MgCl2, 0.1 mM CaCl2, and 10 mM HEPES, pH 7.5). […] Currents were recorded at a constant holding potential of -60 mV. […]
# (§1) MTSEA was prepared daily in distilled water and stored on ice. […] Kinetic data were analyzed as described previously; rate data were fit to a single exponential to extract a pseudo-first order rate constant; this was divided by the MTSEA concentration used to determine the second order rate constant for thiol modification.
# [2] = target: α7 AChR M^40C/E^172Q mutant (C^115A/L^247T background) (Gallus gallus, UniProt P22770, C138A/E195Q/L270T/M63C); test: ACh dose-response, two-electrode voltage clamp in Xenopus oocytes
# Source text: (§2) A cDNA clone of the chick α7 receptor containing two mutations (C^115A, L^247T) was used as the parental phenotype for mutations described in this study. We mutated the lone unpaired cysteine in the extracellular domain (C^115) to alanine to allow for a more straightforward interpretation of thiol modification experiments. […] We included the mutation of leucine 247 in the M2 transmembrane domain (L^247T; L9'T) because of its large current amplitudes and non-desensitizing kinetics compared to wild-type α7 receptors. […] All mutations were introduced by site-directed mutagenesis using the QuikChange method (Agilent Technologies, La Jolla, CA) as described previously, and were confirmed by DNA sequencing.
# (§3) cRNA was prepared using the T7 RNA polymerase and mMessage mMachine kit as described by the manufacturer (Applied Biosystems, Austin, TX). Oocytes were surgically removed and prepared from female Xenopus laevis in accordance with UNC Institutional Animal Care and Use Committee guidelines. Oocytes were injected with 20 ng of cRNA and incubated at 18°C in ND96 (96 mM NaCl, 2 mM KCl, 1 mM MgCl2, 1.8 mM CaCl2, 5 mM Na pyruvate, 50 μg/ml gentamicin, 5 mM HEPES, pH 7.5) for 2–5 days before use. For some mutants we co-injected cRNA encoding the human RIC-3 [38], a protein shown to enhance expression of α7 AChRs in both mammalian cells and oocytes.
# (§4) Oocytes were superfused in normal extracellular solution containing a reduced Ca^2+ concentration (ESLC; 96 mM NaCl, 2 mM KCl, 1 mM MgCl2, 0.1 mM CaCl2, and 10 mM HEPES, pH 7.5). […] Two-electrode voltage clamp was performed with a GeneClamp 500B controlled by pCLAMP8 software (Molecular Devices, Sunnyvale, CA). Electrodes were filled with 3 M KCl contacting Ag-AgCl wires and had resistances of 0.5 to 2.0 MΩ. Currents were recorded at a constant holding potential of -60 mV. Currents were low pass filtered at 50 Hz and sampled at 100 Hz. Agonist dose-response curves were obtained as described previously, and data were fit to the Hill equation using Origin software (Microcal Software, Northampton, MA).
# as §1, with “ice. Stock solution was diluted to the appropriate working concentration in ESLC immediately before each application. […] To measure the effect of Ba^2+ on modification rates we pre-applied 10 mM Ba^2+ for 30 seconds prior to co-application of 10 mM Ba^2+ plus MTSEA.” for “ice.”
# [3] = target: α7 C^115A/L^247T receptor (Gallus gallus, UniProt P22770, C138A/L270T); test: as above
# Source text: as §2, §3, §4
# as §1, with “ice. Stock solution was diluted to the appropriate working concentration in ESLC immediately before each application. […] To measure the effect of Ba^2+ on modification rates we pre-applied 10 mM Ba^2+ for 30 seconds prior to co-application of 10 mM Ba^2+ plus MTSEA.” for “ice.”
# [4] = target: α7 AChR M^37C mutant (C^115A/L^247T background) (Gallus gallus, UniProt P22770, C138A/L270T/M60C); test: as above; details: fraction of maximal ACh-evoked current evoked by 10 mM Ba^2+ in the absence of ACh
# Source text: as §2, §3, §4
# as §1, with “ice. Stock solution was diluted to the appropriate working concentration in ESLC immediately before each application. […] To measure the effect of Ba^2+ on modification rates we pre-applied 10 mM Ba^2+ for 30 seconds prior to co-application of 10 mM Ba^2+ plus MTSEA.” for “ice.”
# [5] = target: α7 AChR E^44C mutant (C^115A/L^247T background) (Gallus gallus, UniProt P22770, C138A/E67C/L270T); test: as above
# Source text: as §2, §3, §4
# as §1, with “ice. Stock solution was diluted to the appropriate working concentration in ESLC immediately before each application. […] To measure the effect of Ba^2+ on modification rates we pre-applied 10 mM Ba^2+ for 30 seconds prior to co-application of 10 mM Ba^2+ plus MTSEA.” for “ice.”
# [6] = target: α7 AChR E^172C mutant (C^115A/L^247T background) (Gallus gallus, UniProt P22770, C138A/E195C/L270T); test: as above
# Source text: as §2, §3, §4
# as §1, with “ice. Stock solution was diluted to the appropriate working concentration in ESLC immediately before each application. […] To measure the effect of Ba^2+ on modification rates we pre-applied 10 mM Ba^2+ for 30 seconds prior to co-application of 10 mM Ba^2+ plus MTSEA.” for “ice.”
# [7] = target: α7 AChR N^170C mutant (C^115A/L^247T background) (Gallus gallus, UniProt P22770, C138A/L270T/N193C); test: as above; details: co-expression with human RIC-3, fraction of maximal ACh-evoked current evoked by 10 mM Ba^2+ in the absence of ACh
# Source text: as §2, §3, §4
# as §1, with “ice. Stock solution was diluted to the appropriate working concentration in ESLC immediately before each application. […] To measure the effect of Ba^2+ on modification rates we pre-applied 10 mM Ba^2+ for 30 seconds prior to co-application of 10 mM Ba^2+ plus MTSEA.” for “ice.”
# [8] = target: α7 AChR N^52C mutant (C^115A/L^247T background) (Gallus gallus, UniProt P22770, C138A/L270T/N75C); test: as above
# Source text: as §2, §3, §4
# as §1, with “ice. Stock solution was diluted to the appropriate working concentration in ESLC immediately before each application. […] To measure the effect of Ba^2+ on modification rates we pre-applied 10 mM Ba^2+ for 30 seconds prior to co-application of 10 mM Ba^2+ plus MTSEA.” for “ice.”
# [9] = co-expression with human RIC-3, fraction of maximal ACh-evoked current evoked by 10 mM Ba^2+ in the absence of ACh
# [10] = fraction of maximal ACh-evoked current evoked by 10 mM Ba^2+ in the absence of ACh
smiles,measurement,setting,value
"[Ba+2].[Cl-].[Cl-] [Ba^2+, BaCl2]",Ba^2+ efficacy,[1],0.1
same,positive allosteric modulation of ACh currents by Ba^2+,[2]; 10 mM Ba^2+,not positively modulated
same,Ba^2+ efficacy,[2]; [9],0.02
same,decrease in ACh EC50 (leftward shift in the dose-response curve) caused by Ba^2+,[3]; 10 mM Ba^2+,~ 10 fold
same,Ba^2+ efficacy,[3]; [10],0.1
same,Ba^2+ efficacy,[4],0.2
same,positive allosteric modulation of ACh currents by Ba^2+,[5]; 10 mM Ba^2+,eliminated; also recorded: no positive allosteric modulation
same,Ba^2+ efficacy,[5]; [10],0.01
same,positive allosteric modulation of ACh currents by Ba^2+,[6]; 10 mM Ba^2+,no positive allosteric modulation
same,Ba^2+ efficacy,[6]; [9],0.02
same,Ba^2+ efficacy,[7],0.03
same,agonism by Ba^2+ in the absence of ACh,[8]; 10 mM Ba^2+,high partial agonism
same,Ba^2+ efficacy,[8]; [10],0.6
